Reference: US20060069132A1, “Azolecarboxamide herbicides” (priority 2004, published 2006)

Key:
barnyardgrass [1] = assay: Test B pre-/postemergence herbicide test; format: in vivo, Echinochloa crus-galli; conditions: for Plant response rating (0 to 100 scale), Barnyardgrass: 0 is no effect; for Plant response rating (0 to 100 scale), Barnyardgrass / Plant response rating, Barnyardgrass: preemergence; for Barnyardgrass plant response rating: postemergence; for Plant response rating, Barnyardgrass: 0 = no effect, 100 = complete control
Summary of the method: (§1)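 Evaluation is visual, comparing treated with control plants on a scale where 0 means no effect and 100 means full control. Treatments were preemergence, or postemergence on seedlings 2–18 cm tall, and held 13–15 days in the greenhouse.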

cocklebur = assay: Test B pre-/postemergence herbicide test; format: in vivo, Xanthium strumarium; conditions: for Plant response rating (0 to 100 scale), Cocklebur: 0 is no effect; for Plant response rating (0 to 100 scale), Cocklebur / Plant response rating, Cocklebur: preemergence; for Cocklebur plant response rating: postemergence; for Plant response rating, Cocklebur: 0 = no effect, 100 = complete control
Summary of the method: as §1

corn = assay: Test B pre-/postemergence herbicide test; format: in vivo, Zea mays; conditions: postemergence
Summary of the method: (§2)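 Response was scored visually 13 to 15 days after treatment against untreated greenhouse controls, 0 meaning no effect and 100 complete control. Formulations (solvent mixture plus surfactant) went onto soil after planting, onto foliage of 1- to 4-leaf plants, and onto 2-leaf plants in a flooded paddy set including rice and barnyardgrass.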

large crabgrass = assay: Test B pre-/postemergence herbicide test; format: in vivo, Digitaria sanguinalis; conditions: for Plant response rating (0 to 100 scale), Crabgrass, Large: 0 is no effect; for Plant response rating (0 to 100 scale), Crabgrass, Large / Plant response rating, Crabgrass, Large: preemergence; for Crabgrass, Large plant response rating: postemergence; for Plant response rating, Crabgrass, Large: 0 = no effect, 100 = complete control
Summary of the method: as §2

giant foxtail = assay: Test B pre-/postemergence herbicide test; format: in vivo, Setaria faberi; conditions: for Plant response rating (0 to 100 scale), Foxtail, Giant: 0 is no effect; for Plant response rating (0 to 100 scale), Foxtail, Giant / Plant response rating, Foxtail, Giant: preemergence; for Foxtail, Giant plant response rating: postemergence; for Plant response rating, Foxtail, Giant: 0 = no effect, 100 = complete control
Summary of the method: as §2

lambsquarters = assay: Test B pre-/postemergence herbicide test; format: in vivo, Chenopodium album; conditions: for Plant response rating (0 to 100 scale), Lambsquarters: 0 is no effect; for Plant response rating (0 to 100 scale), Lambsquarters / Plant response rating, Lambsquarters: preemergence; for Lambsquarters plant response rating: postemergence; for Plant response rating, Lambsquarters: 0 = no effect, 100 = complete control
Summary of the method: as §2

morningglory = assay: Test B pre-/postemergence herbicide test; format: in vivo, Ipomoea coccinea; conditions: for Morningglory plant response rating: postemergence; for Plant response rating, Morningglory: 0 = no effect, 100 = complete control
Summary of the method: as §1

pigweed = assay: Test B pre-/postemergence herbicide test; format: in vivo, Amaranthus retroflexus; conditions: for Plant response rating (0 to 100 scale), Pigweed: 0 is no effect; for Plant response rating (0 to 100 scale), Pigweed / Plant response rating, Pigweed: preemergence; for Pigweed plant response rating: postemergence; for Plant response rating, Pigweed: 0 = no effect, 100 = complete control
Summary of the method: as §2

velvetleaf = assay: Test B pre-/postemergence herbicide test; format: in vivo, Abutilon theophrasti; conditions: for Plant response rating (0 to 100 scale), Velvetleaf: 0 is no effect, preemergence; for Velvetleaf plant response rating: postemergence
Summary of the method: as §2

blackgrass = assay: Test B postemergence herbicide test; format: in vivo, Alopecurus myosuroides; conditions: postemergence
Summary of the method: (§3)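 Each value is a visual 0–100 response rating taken against controls 13 to 15 days after treatment in the greenhouse. Plants received formulated chemical postemergence at the 1- to 4-leaf stage or, in flooded paddy, at the 2-leaf stage.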

wild oat = assay: Test B postemergence herbicide test; format: in vivo, Avena fatua; conditions: postemergence
Summary of the method: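 Greenhouse test; postemergence application to plants at 1–4 leaves (2–18 cm); paddy species at 2 leaves; evaluated visually vs controls at 13–15 days; scale 0–100 (100 = complete control).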

rice = assay: Test B flooded paddy test; format: in vivo, Oryza sativa; conditions: 1000 g ai/ha, scale 0 to 100 (0 no effect, 100 complete control)
Summary of the method: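 Postemergence plants were sprayed with formulated test chemicals at 2 to 18 cm height (1- to 4-leaf stage); paddy species were grown to the 2-leaf stage. After 13 to 15 days in a greenhouse, injury was rated visually against untreated controls on a 0–100 scale (0 = no effect, 100 = complete control).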

[2] = tested on: small flower umbrella sedge; assay: Test B flooded paddy test; format: in vivo, Cyperus difformis; conditions: 1000 g ai/ha, scale 0 to 100 (0 no effect, 100 complete control)
Summary of the method: as §3

ducksalad = assay: Test B flooded paddy test; format: in vivo, Heteranthera limosa; conditions: 1000 g ai/ha, scale 0 to 100 (0 no effect, 100 complete control)
Summary of the method: as §3

barnyardgrass [3] = assay: Test B flooded paddy test; format: in vivo, Echinochloa crus-galli; conditions: 1000 g ai/ha, scale 0 to 100 (0 no effect, 100 complete control)
Summary of the method: as §3

[4] = 125 g ai/ha, 100 is complete control
[5] = 125 g ai/ha, visual rating, scale 0 (no effect) to 100 (complete control)
[6] = 500 g ai/ha, scale 0 to 100, 0 is no effect, 100 is complete control
[7] = 500 g ai/ha, visual rating, preemergence

SMILES: CCC1=NN(C(C)(C)C)CC1C(=O)Nc1cc(C(=O)N2CCCC2)ccc1F (racemic) [Compound 341]
- Plant response rating (0 to 100 scale), Barnyardgrass (barnyardgrass [1]; [4]): 80
- Barnyardgrass plant response rating (barnyardgrass [1]; [5]): 10
- Plant response rating, Barnyardgrass (barnyardgrass [1]; 500 g ai/ha, visual rating): 100
- Barnyardgrass plant response rating (barnyardgrass [1]; [6]): 20
- Plant response rating (0 to 100 scale), Cocklebur (cocklebur; [4]): 40
- Cocklebur plant response rating (cocklebur; [5]): 10
- Plant response rating, Cocklebur (cocklebur; 500 g ai/ha, visual rating): 100
- Cocklebur plant response rating (cocklebur; [6]): 20
- Corn plant response rating (corn; [5]): 0
- Corn plant response rating (corn; [6]): 10
- Plant response rating (0 to 100 scale), Crabgrass, Large (large crabgrass; [4]): 90
- Crabgrass, Large plant response rating (large crabgrass; [5]): 10
- Plant response rating, Crabgrass, Large (large crabgrass; 500 g ai/ha, visual rating): 100
- Crabgrass, Large plant response rating (large crabgrass; [6]): 20
- Plant response rating (0 to 100 scale), Foxtail, Giant (giant foxtail; [4]): 50
- Foxtail, Giant plant response rating (giant foxtail; [5]): 30
- Plant response rating, Foxtail, Giant (giant foxtail; 500 g ai/ha, visual rating): 90
- Foxtail, Giant plant response rating (giant foxtail; [6]): 30
- Plant response rating (0 to 100 scale), Lambsquarters (lambsquarters; [4]): 100
- Lambsquarters plant response rating (lambsquarters; [5]): 30
- Plant response rating, Lambsquarters (lambsquarters; 500 g ai/ha, visual rating): 100
- Lambsquarters plant response rating (lambsquarters; [6]): 100
- Morningglory plant response rating (morningglory; [5]): 20
- Plant response rating, Morningglory (morningglory; [7]): 30
- Morningglory plant response rating (morningglory; [6]): 40
- Plant response rating (0 to 100 scale), Pigweed (pigweed; [4]): 90
- Pigweed plant response rating (pigweed; [5]): 30
- Plant response rating, Pigweed (pigweed; 500 g ai/ha, visual rating): 100
- Pigweed plant response rating (pigweed; [6]): 60
- Plant response rating (0 to 100 scale), Velvetleaf (velvetleaf; [4]): 60
- Velvetleaf plant response rating (velvetleaf; [5]): 20
- Velvetleaf plant response rating (velvetleaf; [6]): 30
- Blackgrass plant response rating (blackgrass; [5]): 10
- Blackgrass plant response rating (blackgrass; [6]): 20
- Oat, Wild plant response rating (wild oat; [5]): 0
- Oat, Wild plant response rating (wild oat; [6]): 30
- Rice plant response rating (rice): 70
- Sedge, Umbrella plant response rating [2]: 80
- Ducksalad plant response rating (ducksalad): 90
- Barnyardgrass plant response rating (barnyardgrass [3]): 90

SMILES: CCC1=NN(C(C)(C)C)CC1C(=O)Nc1cc(C(=O)N(C)CC)ccc1F (racemic) [Compound 342]
- Plant response rating (0 to 100 scale), Barnyardgrass (barnyardgrass [1]; [4]): 70
- Barnyardgrass plant response rating (barnyardgrass [1]; [5]): 10
- Plant response rating, Barnyardgrass (barnyardgrass [1]; 500 g ai/ha, visual rating): 100
- Barnyardgrass plant response rating (barnyardgrass [1]; [6]): 20
- Plant response rating (0 to 100 scale), Cocklebur (cocklebur; [4]): 40
- Cocklebur plant response rating (cocklebur; [5]): 10
- Plant response rating, Cocklebur (cocklebur; 500 g ai/ha, visual rating): 90
- Cocklebur plant response rating (cocklebur; [6]): 20
- Corn plant response rating (corn; [5]): 10
- Corn plant response rating (corn; [6]): 30
- Plant response rating (0 to 100 scale), Crabgrass, Large (large crabgrass; [4]): 40
- Crabgrass, Large plant response rating (large crabgrass; [5]): 10
- Plant response rating, Crabgrass, Large (large crabgrass; 500 g ai/ha, visual rating): 100
- Crabgrass, Large plant response rating (large crabgrass; [6]): 20
- Plant response rating (0 to 100 scale), Foxtail, Giant (giant foxtail; [4]): 40
- Foxtail, Giant plant response rating (giant foxtail; [5]): 20
- Plant response rating, Foxtail, Giant (giant foxtail; 500 g ai/ha, visual rating): 90
- Foxtail, Giant plant response rating (giant foxtail; [6]): 50
- Plant response rating (0 to 100 scale), Lambsquarters (lambsquarters; [4]): 80
- Lambsquarters plant response rating (lambsquarters; [5]): 60
- Plant response rating, Lambsquarters (lambsquarters; 500 g ai/ha, visual rating): 100
- Lambsquarters plant response rating (lambsquarters; [6]): 100
- Plant response rating (0 to 100 scale), Morningglory (morningglory; 125 g ai/ha, 0 is no effect, 100 is complete control, preemergence): 10
- Morningglory plant response rating (morningglory; [5]): 30
- Plant response rating, Morningglory (morningglory; [7]): 70
- Morningglory plant response rating (morningglory; [6]): 80
- Plant response rating (0 to 100 scale), Pigweed (pigweed; [4]): 80
- Pigweed plant response rating (pigweed; [5]): 40
- Plant response rating, Pigweed (pigweed; 500 g ai/ha, visual rating): 100
- Pigweed plant response rating (pigweed; [6]): 80
- Plant response rating (0 to 100 scale), Velvetleaf (velvetleaf; [4]): 70
- Velvetleaf plant response rating (velvetleaf; [5]): 20
- Velvetleaf plant response rating (velvetleaf; [6]): 50
- Blackgrass plant response rating (blackgrass; [5]): 20
- Blackgrass plant response rating (blackgrass; [6]): 30
- Oat, Wild plant response rating (wild oat; [5]): 20
- Oat, Wild plant response rating (wild oat; [6]): 30
- Rice plant response rating (rice): 70
- Sedge, Umbrella plant response rating [2]: 70
- Ducksalad plant response rating (ducksalad): 80
- Barnyardgrass plant response rating (barnyardgrass [3]): 90
